Laboratory results taken from ChEMBL document CHEMBL1909046, “DrugMatrix in vitro pharmacology data”.

Columns and labels:
[1] = biological target: T1, Cysteinyl leukotriene receptor 1 (Homo sapiens, UniProt Q9Y271); assay type: cell membranes, Membrane; settings: cho-k1; note: in other assays of this panel Not Active means under 50% inhibition at 10 µM
T1 sequence (Q9Y271 whole entry): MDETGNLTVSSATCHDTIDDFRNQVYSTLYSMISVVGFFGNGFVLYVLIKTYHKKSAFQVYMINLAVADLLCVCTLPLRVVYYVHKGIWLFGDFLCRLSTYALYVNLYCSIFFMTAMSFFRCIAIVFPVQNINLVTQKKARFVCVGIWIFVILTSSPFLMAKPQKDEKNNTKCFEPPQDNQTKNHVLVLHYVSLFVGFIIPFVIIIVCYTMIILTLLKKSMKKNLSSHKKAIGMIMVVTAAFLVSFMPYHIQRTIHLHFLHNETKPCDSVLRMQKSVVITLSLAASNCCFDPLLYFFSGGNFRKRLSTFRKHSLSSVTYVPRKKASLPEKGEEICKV

[2] = biological target: T2, Receptor-type tyrosine-protein phosphatase C (Homo sapiens, UniProt P08575); design: species or system Escherichia coli;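 note: inhibition of CD45 enzyme activity measured using DiFMUP as substrate; in other assays of this panel Not Active means under 50% inhibition at 10 µM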
T2 sequence (P08575 whole entry): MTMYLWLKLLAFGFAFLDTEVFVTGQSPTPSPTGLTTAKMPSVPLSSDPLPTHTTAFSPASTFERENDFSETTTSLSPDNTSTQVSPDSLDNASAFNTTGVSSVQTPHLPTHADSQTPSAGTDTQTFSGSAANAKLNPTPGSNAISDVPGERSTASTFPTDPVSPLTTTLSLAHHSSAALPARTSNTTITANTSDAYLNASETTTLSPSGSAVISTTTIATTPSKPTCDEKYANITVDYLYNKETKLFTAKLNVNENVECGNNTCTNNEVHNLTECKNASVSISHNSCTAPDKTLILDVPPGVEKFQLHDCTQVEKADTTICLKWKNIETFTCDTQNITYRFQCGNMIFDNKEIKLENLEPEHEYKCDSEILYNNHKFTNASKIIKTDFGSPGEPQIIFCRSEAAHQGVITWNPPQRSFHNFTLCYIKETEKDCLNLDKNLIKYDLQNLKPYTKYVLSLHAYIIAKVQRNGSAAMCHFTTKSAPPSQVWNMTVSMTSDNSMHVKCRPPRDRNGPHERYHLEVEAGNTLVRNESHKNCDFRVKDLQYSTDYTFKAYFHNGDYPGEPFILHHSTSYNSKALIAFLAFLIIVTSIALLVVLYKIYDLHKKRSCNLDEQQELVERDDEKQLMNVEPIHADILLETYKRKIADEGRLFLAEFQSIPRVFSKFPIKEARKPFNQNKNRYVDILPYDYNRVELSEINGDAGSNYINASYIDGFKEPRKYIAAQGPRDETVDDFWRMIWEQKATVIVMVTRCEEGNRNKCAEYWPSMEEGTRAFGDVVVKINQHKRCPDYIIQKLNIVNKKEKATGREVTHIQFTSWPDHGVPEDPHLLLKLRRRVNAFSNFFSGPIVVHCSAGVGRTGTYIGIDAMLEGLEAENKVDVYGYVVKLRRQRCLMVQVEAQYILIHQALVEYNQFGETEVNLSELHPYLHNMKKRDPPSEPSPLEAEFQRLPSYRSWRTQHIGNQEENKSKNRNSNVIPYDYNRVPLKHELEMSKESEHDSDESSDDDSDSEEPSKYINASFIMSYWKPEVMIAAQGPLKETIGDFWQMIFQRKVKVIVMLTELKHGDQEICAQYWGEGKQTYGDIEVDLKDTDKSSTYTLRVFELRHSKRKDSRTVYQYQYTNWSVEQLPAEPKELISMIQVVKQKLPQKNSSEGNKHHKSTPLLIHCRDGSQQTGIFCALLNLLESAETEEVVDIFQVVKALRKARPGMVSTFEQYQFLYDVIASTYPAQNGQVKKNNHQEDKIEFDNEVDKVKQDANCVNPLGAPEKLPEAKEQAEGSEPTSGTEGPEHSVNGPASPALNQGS

[3] = biological target: Beta-3 adrenergic receptor (Homo sapiens, UniProt P13945); test: DRUGMATRIX: Adrenergic beta3 radioligand binding (ligand: [125I] Cyanopindolol); assay type: cell membranes, HEK293, Membrane; settings: Not Active = under 50% inhibition at 10 µM
Beta-3 adrenergic receptor, sequence (P13945 whole entry): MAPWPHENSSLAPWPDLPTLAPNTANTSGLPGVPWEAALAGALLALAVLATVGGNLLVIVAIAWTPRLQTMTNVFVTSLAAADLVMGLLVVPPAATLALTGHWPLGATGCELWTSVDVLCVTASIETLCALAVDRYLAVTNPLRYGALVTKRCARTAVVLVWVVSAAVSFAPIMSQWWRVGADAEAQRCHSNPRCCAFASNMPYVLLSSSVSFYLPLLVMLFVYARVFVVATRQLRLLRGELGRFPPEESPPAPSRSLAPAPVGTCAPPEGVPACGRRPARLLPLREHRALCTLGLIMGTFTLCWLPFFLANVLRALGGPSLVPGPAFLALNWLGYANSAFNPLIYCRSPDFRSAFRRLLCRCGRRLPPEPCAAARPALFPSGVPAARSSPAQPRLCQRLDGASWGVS

[4] = biological target: T3, Vasoactive intestinal polypeptide receptor 1 (Homo sapiens, UniProt P32241); assay type: cell membranes, Membrane; settings: ht-29; note: in other assays of this panel Not Active means under 50% inhibition at 10 µM
T3 sequence (P32241 whole entry): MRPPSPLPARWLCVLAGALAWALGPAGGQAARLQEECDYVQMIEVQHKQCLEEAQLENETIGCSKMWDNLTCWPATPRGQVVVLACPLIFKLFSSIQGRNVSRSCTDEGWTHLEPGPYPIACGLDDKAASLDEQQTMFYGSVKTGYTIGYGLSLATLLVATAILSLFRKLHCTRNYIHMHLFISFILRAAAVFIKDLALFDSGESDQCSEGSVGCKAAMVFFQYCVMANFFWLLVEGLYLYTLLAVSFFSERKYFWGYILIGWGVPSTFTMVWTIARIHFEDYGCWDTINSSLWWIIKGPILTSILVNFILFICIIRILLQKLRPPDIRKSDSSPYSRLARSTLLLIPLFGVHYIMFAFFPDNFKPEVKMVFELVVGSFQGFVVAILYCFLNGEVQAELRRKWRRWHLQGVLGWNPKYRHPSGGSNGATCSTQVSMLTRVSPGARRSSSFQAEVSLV

Thromboxane-A synthase = biological target: T4, Thromboxane-A synthase (Homo sapiens, UniProt P24557); test: biochemical; assay type: tissue-based, Platelet;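 note: enzyme inhibition assay with PGH2 supplied as substrate; in other assays of this panel Not Active means under 50% inhibition at 10 µM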
T4 sequence (P24557 whole entry): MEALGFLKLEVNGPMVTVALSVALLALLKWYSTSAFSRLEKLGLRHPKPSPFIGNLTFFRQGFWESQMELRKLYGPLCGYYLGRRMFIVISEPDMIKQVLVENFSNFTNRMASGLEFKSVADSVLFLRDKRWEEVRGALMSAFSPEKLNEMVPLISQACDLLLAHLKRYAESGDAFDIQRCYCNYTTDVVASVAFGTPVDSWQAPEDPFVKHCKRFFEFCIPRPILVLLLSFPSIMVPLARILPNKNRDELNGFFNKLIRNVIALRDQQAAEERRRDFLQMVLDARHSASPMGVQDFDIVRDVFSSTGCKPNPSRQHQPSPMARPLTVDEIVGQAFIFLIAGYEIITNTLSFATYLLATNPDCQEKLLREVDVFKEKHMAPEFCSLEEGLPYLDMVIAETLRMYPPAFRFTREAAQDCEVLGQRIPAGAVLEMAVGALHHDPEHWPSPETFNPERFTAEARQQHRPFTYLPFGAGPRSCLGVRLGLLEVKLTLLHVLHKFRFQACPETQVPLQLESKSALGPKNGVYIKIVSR

Compound	IC50 [1]	IC50 [2]	IC50 ([3]; hek293)	IC50 [4]	IC50 (Thromboxane-A synthase; platelet)	IC50 ([3]; read-out: IC50) [µM]	Ki ([3]; read-out: Ki) [µM]	IC50 (Thromboxane-A synthase; read-out: IC50) [µM]	Ki [1]	Ki [2]	Ki ([3]; hek293)	Ki [4]	Ki (Thromboxane-A synthase; platelet)
CC(=N)S [THIOACETAMIDE]	Not Active	Not Active	Not Active	Not Active	Not Active	–	–	–	–	–	–	–	–
O=C1C[C@@H]2OCC=C3CN4CC[C@]56c7ccccc7N1[C@H]5[C@H]2[C@H]3C[C@H]46 [STRYCHNINE]	Not Active	Not Active	Not Active	Not Active	Not Active	–	–	–	–	–	–	–	–
Nc1ccc(S(=O)(=O)NC(=O)c2ccccc2)cc1 [SULFABENZAMIDE]	Not Active	Not Active	Not Active	Not Active	Not Active	–	–	–	–	–	–	–	–
CC(=O)OCC(COC(C)=O)OC(C)=O [TRIACETIN]	Not Active	Not Active	Not Active	Not Active	Not Active	–	–	–	–	–	–	–	–
CCCCC(=O)N(Cc1ccc(-c2ccccc2-c2nnn[nH]2)cc1)[C@H](C(=O)O)C(C)C	Not Active	Not Active	Not Active	Not Active	Not Active	–	–	–	–	–	–	–	–
OCCOCCN1CCN(C2=Nc3ccccc3Sc3ccccc32)CC1 [QUETIAPINE]	Not Active	Not Active	Not Active	Not Active	Not Active	–	–	–	–	–	–	–	–
CC1CCC(NC(=O)N(CCCl)N=O)CC1 (configuration not stated) [SEMUSTINE]	Not Active	Not Active	Not Active	Not Active	Not Active	–	–	–	–	–	–	–	–
Oc1ccc2c3c1O[C@H]1[C@@H](O)CC[C@@]4(O)[C@@H](C2)N(CC2CCC2)CC[C@]314 [NALBUPHINE]	Not Active	Not Active	Not Active	Not Active	Not Active	–	–	–	–	–	–	–	–
Clc1ccc(COC(Cn2ccnc2)c2ccc(Cl)cc2Cl)c(Cl)c1 (configuration not stated) [MICONAZOLE]	Not Active	Not Active	–	Not Active	–	5.48	4.11	0.263	–	–	–	–	–
O=C(O)CCCCC1CCSS1 (stereo not drawn) [LIPOIC ACID, ALPHA]	Not Active	Not Active	Not Active	Not Active	Not Active	–	–	–	–	–	–	–	–
CCCCCCCCNC(C)C(O)c1ccc(SC(C)C)cc1 (configuration not stated) [SULOCTIDIL]	Not Active	Not Active	–	Not Active	Not Active	–	–	–	–	–	–	–	–
COC(=O)[C@H]1[C@H]2C[C@@H]3c4[nH]c5cc(OC)ccc5c4CCN3C[C@H]2C[C@@H](OC(=O)c2cc(OC)c(OC)c(OC)c2)[C@@H]1OC [RESERPINE]	Not Active	Not Active	Not Active	Not Active	Not Active	–	–	–	–	–	–	–	–
O=c1[nH]c(=O)n(C2CCCO2)cc1F (configuration not stated) [TEGAFUR]	Not Active	Not Active	Not Active	Not Active	Not Active	–	–	–	–	–	–	–	–
CC(C)NC[C@H](O)COc1cccc2ccccc12 [LEVOPROPRANOLOL]	Not Active	Not Active	–	Not Active	Not Active	–	–	–	–	–	–	–	–
CN1[C@@H]2CC[C@H]1C[C@@H](OC(c1ccccc1)c1ccccc1)C2 [BENZTROPINE]	Not Active	Not Active	Not Active	Not Active	Not Active	–	–	–	–	–	–	–	–
Cc1ccc(C(=O)c2ccc(CC(=O)O)n2C)cc1 [TOLMETIN]	Not Active	Not Active	Not Active	Not Active	Not Active	–	–	–	–	–	–	–	–
C[S+]([O-])c1ccc(-c2nc(-c3ccncc3)c(-c3ccc(F)cc3)[nH]2)cc1 (configuration not stated) [SB-203580]	Not Active	Not Active	Not Active	Not Active	–	–	–	–	–	–	–	–	–
CN1CCN(C2=Nc3cc(Cl)ccc3Nc3ccccc32)CC1 [CLOZAPINE]	Not Active	Not Active	Not Active	Not Active	Not Active	–	–	–	–	–	–	–	–
C[C@]12C=CC(=O)C=C1CC[C@@H]1[C@@H]2C(=O)C[C@@]2(C)[C@H]1CC[C@]2(O)C(=O)CO [PREDNISONE]	Not Active	Not Active	Not Active	Not Active	Not Active	–	–	–	–	–	–	–	–
CC(C)NC[C@@H](O)COc1cccc2ccccc12 [DEXPROPRANOLOL]	Not Active	Not Active	Not Active	Not Active	Not Active	–	–	–	–	–	–	–	–
CN1CCN(CCCN2c3ccccc3Sc3ccc(C(F)(F)F)cc32)CC1 [TRIFLUOPERAZINE]	Not Active	Not Active	Not Active	Not Active	Not Active	–	–	–	–	–	–	–	–
O=C(O)COc1ccc(C(=O)c2cccs2)c(Cl)c1Cl	Not Active	Not Active	Not Active	Not Active	Not Active	–	–	–	–	–	–	–	–
C[N+](C)(C)CCOC(=O)CCC(=O)OCC[N+](C)(C)C.[Cl-].[Cl-] [SUCCINYLCHOLINE CHLORIDE]	Not Active	Not Active	Not Active	Not Active	Not Active	–	–	–	–	–	–	–	–
TRANSPLATIN	Not Active	Not Active	Not Active	Not Active	Not Active	–	–	–	Not Active	Not Active	Not Active	Not Active	Not Active
C[C@@](Cc1ccc(O)c(O)c1)(NN)C(=O)O.O [CARBIDOPA]	Not Active	Not Active	Not Active	Not Active	Not Active	–	–	–	–	–	–	–	–
ZIRCONIUM(IV) CHLORIDE	Not Active	Not Active	Not Active	Not Active	Not Active	–	–	–	Not Active	Not Active	Not Active	Not Active	Not Active
CN(C)C(=O)C(CCN1CCC(O)(c2ccc(Cl)cc2)CC1)(c1ccccc1)c1ccccc1 [LOPERAMIDE]	Not Active	Not Active	–	Not Active	Not Active	–	–	–	–	–	–	–	–
